The subject of one data set is astrocytes. Put plainly: WST-1 viability under AAPH-induced oxidative stress, astrocytes. It counts as cell-based, human. To be noted: benperidol 5 and 10 μg/L, penfluridol 12.5 μg/L, pimozide 15 μg/L, promazine 25 and 50 μg/L. The procedure, abridged:
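HUVEC and astrocytes grown to confluence, given antipsychotics at ½ × TPCmax and TPCmax for 1 h, then AAPH (17.5 mmol/L HUVEC; 15.0 mmol/L astrocytes) for 24 h at 37 °C; AA 10 μg/mL as antioxidant control. WST-1 read at 450 nm after 90 min (HUVEC) or 60 min (astrocytes); viability as % of control.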

Data set [1] concerns the target T1, human plasma butyrylcholinesterase (Homo sapiens, UniProt P06276).
T1 construct: The solution of plasma 200-fold diluted with 0.9% NaCl; from tissue; host or cells: citrated plasma from blood of healthy human donors
As to the kind of experiment: BuChE inhibition, modified Ellman's method. It counts as biochemical. To be noted: experimental data, mean ± SD, n = 6–9.

For data set [2], the system named is human erythrocytes. As to the kind of experiment: RBC hemolysis, compounds alone. It counts as cell-based. To be noted: 2% human erythrocyte (RBC) suspension, read-out: increase of disintegration of the erythrocyte membrane (hemolysis). How it is done: (§1) The blood samples were centrifuged (3000 rpm, 10 min, 20 °C, Micro 22 R centrifuge, Hettich Zentrifugen, Tuttlingen, Germany) to separate erythrocytes from the plasma and washed three times with 0.9% saline (NaCl). […] The erythrocytes were suspended in 0.9% saline. As control of basal hemolysis, erythrocytes were incubated with 0.9% NaCl. For total hemolysis control erythrocytes were incubated with 2.0% v/v Triton X-100. Incubation with Triton X-100 and K4[Fe(CN)6] (at concentration 50 g/L) was performed to control methemoglobin (MetHb) formation. Moreover, an antioxidant control containing ascorbic acid (AA) at a concentration of 10 µg/mL was prepared, while AAPH at a concentration of 50 mmol/L was an oxidizing agent. Antipsychotics at concentrations equaling their maximum therapeutic plasma concentrations (TPCmax), as well as 5-fold higher (5 × TPCmax) and 5-fold lower than TPCmax (1/5 × TPCmax), and the oxidizing agent AAPH at a concentration of 50 mmol/L, were added to 2% RBC suspension. Controls and tested samples were incubated at 37 °C. […] The percentage of hemolysis was calculated with the following formula:Hemolysis (%) = (Asample/Atotal hemolysis) × 100%(1) where Asample—absorbance of the test sample; Atotal hemolysis—the absorbance of the reference sample with 2% Triton X solution, corresponding to complete hemolysis.

The test system of data set [3] is human erythrocytes. Put plainly: Methemoglobin formation in RBC, compounds alone. It counts as cell-based. The settings on record: 250 μg/L. The method, then:
as §1

Another data set has as its target BuChE (Homo sapiens, UniProt P06276). As to the kind of experiment: Kinetic parameters of enzymatic reaction (Hanes–Woolf), BuChE. The format is biochemical. More on the design: The solution of plasma 200-fold diluted with 0.9% NaCl; from tissue; host or cells: citrated plasma from blood of healthy human donors. The method, then: Kinetic parameters were obtained on the basis of three individual experiments carried out on different biological materials. For this purpose, various concentrations of substrates (ATC and BTC) were used in experiments. The type of inhibition and kinetic parameters of enzymatic reactions were obtained by linear regression using the Hanes–Woolf equations.
AChE SI (selectivity index) was calculated by using the following formula: SI = IC50 of BuChE/IC50 of AChE. However, BuChE SI was defined as IC50 of AChE/IC50 of BuChE. Maximal velocity (Vmax) and the Michaelis constant (Km) were calculated with the use of linear regression—according to the Hanes–Woolf plot.

Data set [4] concerns the target T2, recombinant human β-amyloid (1–42) (Homo sapiens, UniProt P05067).
T2 construct: recombinant human β-amyloid (1–42; ultrapure); purchased Sigma-Aldrich (St. Louis, MO, USA)
Put plainly: Beta-amyloid aggregation, Thioflavin T fluorescence. The format is biochemical. The settings on record: 24 and 48 h; both tested concentrations. The method, boiled down: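 Aβ42 (DMSO stock, pre-warmed 15 min at 37 °C) at 20 μmol/L final incubated with antipsychotics at TPC and 1/2 × TPC, with 5 µmol/L ThT added. Fluorescence (Ex/Em 440/484 nm, room temperature) read at 10, 30, 60, 90 min, 24 and 48 h; peptide-only control set as 100% aggregation.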

The target in data set [5] is T3, human erythrocyte acetylcholinesterase (Homo sapiens, UniProt P22303).
T3 construct: solution of hemolyzed erythrocytes diluted 400-fold; from tissue; host or cells: hemolyzed erythrocytes from blood of healthy human donors
T3 sequence (P22303 32-617 isoform P22303-2 limits assumed): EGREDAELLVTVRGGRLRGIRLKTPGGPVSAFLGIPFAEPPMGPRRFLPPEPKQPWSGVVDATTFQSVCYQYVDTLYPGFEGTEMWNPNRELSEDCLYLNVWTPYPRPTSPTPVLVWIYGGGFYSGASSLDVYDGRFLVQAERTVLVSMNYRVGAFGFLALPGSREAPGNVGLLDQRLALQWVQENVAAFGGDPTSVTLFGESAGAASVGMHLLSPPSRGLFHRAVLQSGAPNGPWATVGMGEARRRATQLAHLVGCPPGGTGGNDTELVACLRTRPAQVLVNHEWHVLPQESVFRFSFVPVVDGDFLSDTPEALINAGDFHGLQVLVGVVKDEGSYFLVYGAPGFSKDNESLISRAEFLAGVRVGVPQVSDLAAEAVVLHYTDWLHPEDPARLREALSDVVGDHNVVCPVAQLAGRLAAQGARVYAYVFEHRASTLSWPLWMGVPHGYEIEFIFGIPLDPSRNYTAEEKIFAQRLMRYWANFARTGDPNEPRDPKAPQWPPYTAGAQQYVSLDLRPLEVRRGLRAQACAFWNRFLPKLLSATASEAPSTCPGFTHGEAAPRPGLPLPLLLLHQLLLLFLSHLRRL
Put plainly: AChE inhibition, modified Ellman's method. It counts as biochemical. To be noted: for AChE reaction velocity: control 0.259 ± 0.013 A/min.

In data set [6] the test system is human erythrocytes. Put plainly: Methemoglobin formation in RBC with AAPH. To be noted: 24 h, AAPH control 78.1%. The format is cell-based. The method, then:
The blood samples were centrifuged (3000 rpm, 10 min, 20 °C, Micro 22 R centrifuge, Hettich Zentrifugen, Tuttlingen, Germany) to separate erythrocytes from the plasma and washed three times with 0.9% saline (NaCl). […] The erythrocytes were suspended in 0.9% saline. As control of basal hemolysis, erythrocytes were incubated with 0.9% NaCl. For total hemolysis control erythrocytes were incubated with 2.0% v/v Triton X-100. Incubation with Triton X-100 and K4[Fe(CN)6] (at concentration 50 g/L) was performed to control methemoglobin (MetHb) formation. Moreover, an antioxidant control containing ascorbic acid (AA) at a concentration of 10 µg/mL was prepared, while AAPH at a concentration of 50 mmol/L was an oxidizing agent. Antipsychotics at concentrations equaling their maximum therapeutic plasma concentrations (TPCmax), as well as 5-fold higher (5 × TPCmax) and 5-fold lower than TPCmax (1/5 × TPCmax), and the oxidizing agent AAPH at a concentration of 50 mmol/L, were added to 2% RBC suspension. Controls and tested samples were incubated at 37 °C. […] For each measurement, 0.5 mL samples were taken from incubated Eppendorf tubes and centrifuged (3000 rpm, 10 min). […] The percentage of hemolysis was calculated with the following formula:Hemolysis (%) = (Asample/Atotal hemolysis) × 100%(1) where Asample—absorbance of the test sample; Atotal hemolysis—the absorbance of the reference sample with 2% Triton X solution, corresponding to complete hemolysis.

Data on one molecule can be found in PMC9102502, “The Influence of Selected Antipsychotic Drugs on Biochemical Aspects of Alzheimer’s Disease” (International Journal of Molecular Sciences, 2022).

Read-outs that look alike come from different tables or passages of the source.

Sequence of BuChE (P06276 29-602): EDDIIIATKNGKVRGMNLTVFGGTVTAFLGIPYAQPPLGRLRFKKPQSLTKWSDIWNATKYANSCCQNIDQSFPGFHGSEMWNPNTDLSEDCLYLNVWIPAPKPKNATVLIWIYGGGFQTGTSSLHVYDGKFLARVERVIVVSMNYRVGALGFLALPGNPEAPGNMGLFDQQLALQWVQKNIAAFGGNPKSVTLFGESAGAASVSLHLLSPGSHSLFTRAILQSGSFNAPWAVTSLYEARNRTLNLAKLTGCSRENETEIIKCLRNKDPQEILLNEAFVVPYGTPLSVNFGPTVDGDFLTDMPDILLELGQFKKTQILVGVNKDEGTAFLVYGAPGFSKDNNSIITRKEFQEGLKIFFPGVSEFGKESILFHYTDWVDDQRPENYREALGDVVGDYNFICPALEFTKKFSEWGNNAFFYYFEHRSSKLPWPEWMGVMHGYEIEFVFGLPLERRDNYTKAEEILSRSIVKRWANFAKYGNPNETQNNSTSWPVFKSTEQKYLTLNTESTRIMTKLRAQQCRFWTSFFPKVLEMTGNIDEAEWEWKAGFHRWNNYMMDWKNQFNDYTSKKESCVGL
T1 sequence (P06276 29-602): as above
T2 sequence (P05067 672-713 limits assumed): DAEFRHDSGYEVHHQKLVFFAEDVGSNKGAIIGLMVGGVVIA

Consider `CN(C)CCCN1c2ccccc2Sc2ccccc21` [Promazine, promazine], for which the “astrocyte viability compared with the control (pure AAPH)” value in the data set on astrocytes is recorded as “statistically significant increase”. For the same molecule, the values for the half-inhibitory concentration (IC50) in data set [1] (IC50 BuChE), in data set [1] (read-out: IC50 BuChE) and in data set [5] (theoretical values calculated on the basis of extrapolated plots) were 186 nM, 190 ± 20 nM and over 2000 nM, respectively. Moreover, the hemolysis at 5 h, 250 μg/L in the data set with human erythrocytes [2] (5 h of incubation) was over 45%. Besides, in the data set on human erythrocytes [2] (24 h of incubation), the hemolysis at 24 h, 250 μg/L is over 59%. Further, the values for the formation of methemoglobin with human erythrocytes [3] (5 h of incubation) and with human erythrocytes [3] (24 h of incubation) were 39% and 64%, respectively. Further, the “Vmax(i) BuChE” value on BuChE (compound at its IC50) is given as 0.144 ± 0.036 A/min; at BuChE (compound at ½ IC50) it was 0.192 ± 0.059 A/min. In addition, the “type of inhibition of BuChE” value on BuChE (from Km(i), Vmax(i) vs Km, Vmax, mixed inhibition) is “same type of inhibition”. In data set [4], the “effect on Aβ aggregation after a longer incubation time” value is “substantially inhibit”. The AChE reaction velocity in data set [5] (100 µg/L) is listed as 0.245 ± 0.015 A/min; in data set [5] (200 µg/L), 0.232 ± 0.016 A/min. Also, the “methemoglobin formation with AAPH” value turned out to be 60.7% in the data set with human erythrocytes [6] (10 μg/L) and 54.5% in the data set on human erythrocytes [6] (50 μg/L).
